Data as given in publication PMC7216583 (Parasites & Vectors, 2020).
Structures can show the parent of a compound that is named as a salt. Where two headings read alike, the source gives them in different places.

How the values were obtained:
[1] = system: non-muscle myosin II ATPases; design: method as in vendor brief description; conditions: ref vendor brief description; cited from earlier work
[2] = system: Toxoplasma gondii RH-2F tachyzoites; experiment: microbe, parasite or virus in culture; conditions: 72 h
[3] = system: HSP90α; conditions: read-out: IC50 HSP90α; ref library vendor description; cited from earlier work
[4] = system: P-glycoprotein; conditions: cited from earlier work
[5] = target: human muscarinic AChR M1; design: method as in vendor brief description; conditions: ref vendor brief description; cited from earlier work
[6] = target: human muscarinic AChR M2; design: method as in vendor brief description; conditions: ref vendor brief description; cited from earlier work
[7] = target: human muscarinic AChR M3; design: method as in vendor brief description; conditions: ref vendor brief description; cited from earlier work
[8] = target: human muscarinic AChR M4; design: method as in vendor brief description; conditions: ref vendor brief description; cited from earlier work
[9] = target: human muscarinic AChR M5; design: method as in vendor brief description; conditions: ref vendor brief description; cited from earlier work
[10] = system: PDE5; conditions: read-out: IC50 PDE5; ref vendor brief description; cited from earlier work
[11] = target: angiotensin II type 1 (AT1) receptor; design: method as in vendor brief description; conditions: ref vendor brief description; cited from earlier work
[12] = in vitro; conditions: human
[13] = system: VEGFR-2; design: method as in vendor brief description; conditions: ref vendor brief description; cited from earlier work
[14] = system: Ret; design: method as in vendor brief description; conditions: ref vendor brief description; cited from earlier work
[15] = system: Kit; design: method as in vendor brief description; conditions: ref vendor brief description; cited from earlier work
[16] = system: Flt-1; design: method as in vendor brief description; conditions: ref vendor brief description; cited from earlier work
[17] = system: Flt-4; design: method as in vendor brief description; conditions: ref vendor brief description; cited from earlier work
[18] = system: AXL; design: method as in vendor brief description; conditions: ref vendor brief description; cited from earlier work
[19] = system: Toxoplasma gondii RH-2F tachyzoites
[20] = target: αvβ3 receptor; design: method as in vendor brief description; conditions: ref vendor brief description; cited from earlier work
[21] = target: αvβ5 receptor; design: method as in vendor brief description; conditions: ref vendor brief description; cited from earlier work
[22] = target: tyrosinase; design: method as in vendor brief description; conditions: ref vendor brief description; cited from earlier work
[23] = system: S1P; design: method as in vendor brief description; conditions: ref vendor brief description; cited from earlier work
[24] = target: H3K27 histone demethylase JMJD3/UTX; design: method as in vendor brief description; conditions: ref vendor brief description; cited from earlier work
[25] = system: PI3Kγ; design: method as in vendor brief description; conditions: ref vendor brief description; cited from earlier work
[26] = target: β-adrenoceptor; design: method as in vendor brief description; conditions: ref vendor brief description; cited from earlier work
[27] = target: recombinant human mGlu2; design: method as in vendor brief description; conditions: ref vendor brief description; cited from earlier work
[28] = target: recombinant human mGlu3 receptors; design: method as in vendor brief description; conditions: ref vendor brief description; cited from earlier work
[29] = target: rat neurons expressing native mGlu2/3 receptors; design: method as in vendor brief description; conditions: ref vendor brief description; cited from earlier work
[30] = target: 5-HT7 receptor; design: method as in vendor brief description; conditions: ref vendor brief description; cited from earlier work
[31] = system: dopamine D2; design: method as in vendor brief description; conditions: ref vendor brief description; cited from earlier work
[32] = system: 5-HT2A; design: method as in vendor brief description; conditions: ref vendor brief description; cited from earlier work
[33] = system: 5-HT1A; design: method as in vendor brief description; conditions: ref vendor brief description; cited from earlier work
[34] = system: noradrenaline α2C; design: method as in vendor brief description; conditions: ref vendor brief description; cited from earlier work
[35] = system: β3-adrenoceptor; design: method as in vendor brief description; conditions: ref vendor brief description; cited from earlier work
[36] = system: 20S proteasome β5; design: method as in vendor brief description; conditions: read-out: IC50 CT-L activity of 20S proteasome β5; ref vendor brief description; cited from earlier work
[37] = system: LMP7; design: method as in vendor brief description; conditions: read-out: IC50 CT-L activity of 20S proteasome LMP7; ref vendor brief description; cited from earlier work
[38] = system: nonsense mutation; conditions: ref vendor brief description; read-out: EC50 nonsense mutation inhibition; cited from earlier work
[39] = target: N-methyl-D-aspartate (NMDA) receptor; design: method as in vendor brief description; conditions: ref vendor brief description; cited from earlier work
[40] = system: sodium channel; design: method as in vendor brief description; conditions: ref vendor brief description; cited from earlier work
[41] = system: nAChR; design: method as in vendor brief description; conditions: ref vendor brief description; cited from earlier work
[42] = target: 5-HT3; design: method as in vendor brief description; conditions: ref vendor brief description; cited from earlier work
[43] = target: histamine 1 (H1) receptor; design: method as in vendor brief description; conditions: ref vendor brief description; cited from earlier work
[44] = target: PAFR; design: method as in vendor brief description; conditions: ref vendor brief description; cited from earlier work
[45] = target: myeloperoxidase; conditions: read-out: IC50 myeloperoxidase; ref vendor brief description; cited from earlier work
[46] = target: β2-adrenergic receptor; design: method as in vendor brief description; conditions: ref vendor brief description; cited from earlier work
[47] = system: CYP2C9; design: method as in vendor brief description; conditions: ref vendor brief description; cited from earlier work
[48] = system: 4-hydroxylation; design: method as in vendor brief description; conditions: ref vendor brief description; cited from earlier work
[49] = system: class I PI3K; design: method as in library vendor description; conditions: ref library vendor description; read-out: IC50 pan-class I PI3K; cited from earlier work
[50] = read-out: Parasite inhibition (%) mean, preliminary screen of compound library, mean
[51] = read-out: Parasite inhibition (%) mean, preliminary screen, mean

SMILES: Cc1ccc2c(c1)C(=O)[C@]1(O)CCN(c3ccccc3)C1=N2 [(−)-Blebbistatin]
- IC50 [1]: 500 to 5000 nM
- inhibition of growth at 5 µM [2, 50]: -56.7%

SMILES: CCNC(=O)c1noc(-c2cc(C(C)C)c(O)cc2O)c1-c1ccc(CN2CCOCC2)cc1 [AUY922 (NVP-AUY922)]
- inhibition of growth at 5 µM [2, 51]: 8.2%

SMILES: COC1CCN(C(=O)c2cc(Cc3n[nH]c(=O)c4ccccc34)ccc2F)CC1 [AZD2461]
- P-glycoprotein substrate property [4]: AZD2461 is a poor P-glycoprotein substrate with lower affinity for Pgp than does olaparib.
- inhibition of growth at 5 µM [2, 50]: 11%

SMILES: O=C(O[C@H]1C[N+]2(CCCOc3ccccc3)CCC1CC2)C(O)(c1cccs1)c1cccs1 [Aclidinium Bromide]
- Ki [5]: 0.1 nM
- Ki [6]: 0.14 nM
- Ki [7]: 0.14 nM
- Ki [8]: 0.21 nM
- Ki [9]: 0.16 nM
- inhibition of growth at 5 µM ([2]; read-out: Parasite inhibition (%) mean): 1.8%

SMILES: COc1ccc(CN=c2[nH]c(N3CCC[C@H]3CO)ncc2C(=O)NCc2ncccn2)cc1Cl [Avanafil]
- IC50 [10]: 1 nM
- inhibition of growth at 5 µM [2, 50]: 7.5%

SMILES: CCOc1nc2cccc(C(=O)O)c2n1Cc1ccc(-c2ccccc2-c2nc(=O)o[nH]2)cc1 [Azilsartan (TAK-536)]
- IC50 [11]: 2.6 nM
- inhibition of growth at 5 µM [2, 50]: 4.6%

SMILES: COc1cc2nccc(Oc3ccc(NC(=O)C4(C(=O)Nc5ccc(F)cc5)CC4)cc3)c2cc1OC [Cabozantinib malate]
- viability at 72 h ([12]; Host viability (%) mean): 43.1%
- IC50 [13]: 0.035 nM
- IC50 [16]: 12 nM
- IC50 [17]: 6 nM
- inhibition of growth at 5 µM [2, 50]: 80.4%

SMILES: CC(C)[C@H]1C(=O)N[C@@H](CCCNC(=N)N)C(=O)NCC(=O)N[C@@H](CC(=O)O)C(=O)N[C@H](Cc2ccccc2)C(=O)N1C [Cilengitide (EMD 121974, NSC 707544)]
- Parasite inhibition (%) mean ([19]; 72 h, 5 μM): 4.9%
- IC50 [21]: 79 nM

SMILES: Oc1ccc(OC2CCCCO2)cc1 (stereo not drawn) [Deoxyarbutin]
- IC50 [22]: 50 nM
- inhibition of growth at 5 µM [2, 50]: 33.4%

SMILES: CCCCCCCCc1ccc(CCC(N)(CO)CO)cc1 [Fingolimod (FTY720)]
- IC50 [23]: 0.033 nM
- inhibition of growth at 5 µM [2, 50]: 10%

SMILES: O=C(O)CCNc1cc(N2CCc3ccccc3CC2)nc(-c2ccccn2)n1 [GSK J1]
- IC50 [24]: 60 nM

SMILES: C[C@H](Nc1ncnc2[nH]cnc12)c1cc2cccc(Cl)c2c(=O)n1-c1ccccc1 [IPI-145 (INK1197)]
- IC50 [25]: 50 nM
- inhibition of growth at 5 µM [2, 50]: 1.9%

SMILES: CCc1cc2c(cc1CC)CC(NC[C@H](O)c1ccc(O)c3[nH]c(=O)ccc13)C2 [Indacaterol Maleate]
- pKi β-adrenoceptor [26]: Indacaterol is an ultra-long-acting β-adrenoceptor agonist with pKi of 7.36.
- inhibition of growth at 5 µM [2, 50]: -8.9%

SMILES: N[C@@]1(C(=O)O)CS(=O)(=O)[C@H]2[C@H](C(=O)O)[C@H]21 [LY2140023 (LY404039)]
- Ki [27]: 149 nM
- Ki [28]: 92 nM
- Ki [29]: 88 nM
- inhibition of growth at 5 µM [2, 50]: 2.9%

SMILES: O=C1[C@@H]2[C@H]3CC[C@H](C3)[C@@H]2C(=O)N1C[C@@H]1CCCC[C@H]1CN1CCN(c2nsc3ccccc23)CC1 [Lurasidone HCl, reference compound]
- viability [12]: 86.9%
- viability at 5 µM [12]: 86.9 ± 1.7%
- IC50 [30]: 0.495 nM
- IC50 [32]: 2.03 nM
- IC50 [33]: 6.75 nM
- IC50 [34]: 10.8 nM
- inhibition at 5 µM ([2]; read-out: Parasite inhibition (%) Mean ± SD): 80.4 ± 1.5%

SMILES: Nc1nc(CC(=O)Nc2ccc(CCNC[C@H](O)c3ccccc3)cc2)cs1 [Mirabegron (YM178)]
- EC50 [35]: 22.4 nM
- inhibition of growth at 5 µM [2, 50]: 3.8%

SMILES: COC[C@H](NC(=O)c1cnc(C)s1)C(=O)N[C@@H](COC)C(=O)N[C@@H](Cc1ccccc1)C(=O)C1(C)CO1 (stereo partly drawn) [Oprozomib (ONX 0912)]
- IC50 [36]: 36 nM
- IC50 [37]: 82 nM
- inhibition of growth at 5 µM [2, 50]: 9%

SMILES: O=C(O)c1cccc(-c2noc(-c3ccccc3F)n2)c1 [PTC124 (Ataluren)]
- EC50 [38]: ~100 nM
- inhibition of growth at 5 µM [2, 50]: -0.1%

SMILES: CCN(CC)CCOC(=O)c1ccc(N)cc1 [Procaine (Novocaine) HCl]
- IC50 [39]: 296 µM
- IC50 [40]: 60 µM
- IC50 [41]: 45.5 µM
- Kd [42]: 1700 nM
- inhibition of growth at 5 µM [2, 50]: 3.7%

SMILES: Cc1cncc(CN2CCC(=C3c4ccc(Cl)cc4CCc4cccnc43)CC2)c1 [Rupatadine Fumarate]
- Ki [43]: 102 nM
- Ki [44]: 550 nM
- inhibition of growth at 5 µM [2, 50]: 0.2%

SMILES: O=N[O-].[Na+] [Sodium Nitrite]
- Parasite inhibition (%) mean [19]: 49.5%
- IC50 [45]: 1300 nM

SMILES: CC(C)(C)NCC(O)c1cc(O)cc(O)c1 (stereo not drawn) [Terbutaline Sulfate]
- IC50 [46]: 53 nM
- inhibition of growth at 5 µM [2, 50]: 40.1%

SMILES: CCCSc1nc(N[C@@H]2C[C@H]2c2ccc(F)c(F)c2)c2nnn([C@@H]3C[C@H](OCCO)[C@@H](O)[C@H]3O)c2n1 [Ticagrelor]
- IC50 [47]: 10.5 µM
- inhibition of growth at 5 µM [2, 50]: 4.7%

SMILES: FC(F)c1nc2ccccc2n1-c1nc(N2CCOCC2)nc(N2CCOCC2)n1 [ZSTK474]
- IC50 [49]: 37 nM
- inhibition of growth at 5 µM [2, 51]: 49.8%
